Measured values: the supplement of paper PMC11451515

Tests used:
Details in all cases: 48 h
[1] = tested on: NOMO1; assay: AUC of viability dose-response curve (% viability x log10 dose units); higher = less sensitive
In short: (§1)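 Leukemia cells adapted to each medium (500 or 1000 cells/well, 1536-well plates) were exposed to library compounds in DMSO for 48 h at 37°C at 11 threefold doses, 47 μM to 0.79 nM. Luminescence by CellTiter-Glo One was normalised per plate to DMSO and cell-free wells, then fitted with a four-parameter log-logistic curve on log10 dose. Curves above full viability were scaled and quality-control failures removed before area under the curve was integrated by trapezoidal rule.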

[2] = tested on: P12-Ichikawa; assay: as above
In short: as §1

[3] = tested on: SEM cells; assay: as above
In short: as §1

[4] = tested on: SEM cells; assay: cell viability relative to DMSO control; higher = less cytotoxic
In short: (§2)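 Leukemia cells (NOMO1 or SEM, 500 cells/well; P12-Ichikawa, 1000 cells/well) were seeded in 5 μl in 1536-well plates after at least four passages of adaptation to each medium. They received library compounds in DMSO by pin dosing, 11 threefold points from 47 μM to 0.79 nM. Luminescence with CellTiter-Glo One was read after 48 h at 37°C. Viability is stated per plate relative to DMSO wells, with cell-free wells as background.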

[5] = tested on: NOMO1; assay: as above
In short: as §2

[6] = tested on: P12-Ichikawa; assay: as above
In short: as §2

NC/1=N/C(=O)N/C=C1F
AUC of viability dose-response curve
Details	[1]	[2]	[3]
HPLM + 10% dialyzed FBS	417	455	468
RPMI 5 mM glucose + 10% FBS	432	438	464
RPMI 5 mM glucose + 10% dialyzed FBS	405	432	429

[4], HPLM + 10% dialyzed FBS
Details	cell viability [%]
0.000781 µM	118
0.00234 µM	145
0.00702 µM	123
0.0211 µM	134
0.0632 µM	118
0.19 µM	125
0.569 µM	125
1.71 µM	136
5.12 µM	130
15.4 µM	120
46.1 µM	103

Cc1cccc(C)c1NC(=O)CN1CCCC1=O
AUC of viability dose-response curve
Details	[1]	[2]	[3]
HPLM + 10% dialyzed FBS	463	444	470
RPMI 5 mM glucose + 10% FBS	458	434	461
RPMI 5 mM glucose + 10% dialyzed FBS	470	458	431

[4], HPLM + 10% dialyzed FBS
Details	cell viability [%]
0.000781 µM	115
0.00234 µM	121
0.00702 µM	125
0.0211 µM	123
0.0632 µM	125
0.19 µM	122
0.569 µM	126
1.71 µM	129
5.12 µM	122
15.4 µM	116
46.1 µM	103

Cn1c2ccccc2c2c3c(c4c5ccccc5n(CCC#N)c4c21)CNC3=O
AUC of viability dose-response curve
Details	[1]	[2]	[3]
HPLM + 10% dialyzed FBS	362	393	305
RPMI 5 mM glucose + 10% FBS	376	363	308
RPMI 5 mM glucose + 10% dialyzed FBS	367	367	300

cell viability [%], [4]
Details	HPLM + 10% dialyzed FBS	RPMI 5 mM glucose + 10% dialyzed FBS
0.000781 µM	109	123
0.00234 µM	118	103
0.00702 µM	142	159
0.0211 µM	119	130
0.0632 µM	111	124
0.19 µM	98.1	107
0.569 µM	55	52.7
1.71 µM	41	39.4
5.12 µM	25.7	19
15.4 µM	18.8	18.5
46.1 µM	17.6	11.2

COc1ccc2c(c[n+](C)c3c4cc5c(cc4ccc23)OCO5)c1OC
AUC of viability dose-response curve
Details	[1]	[2]	[3]
HPLM + 10% dialyzed FBS	438	423	407
RPMI 5 mM glucose + 10% FBS	447	406	397
RPMI 5 mM glucose + 10% dialyzed FBS	449	404	402

Fc1ccc(CNc2ncnc3ccc(F)cc23)cc1
AUC of viability dose-response curve
Details	HPLM + 10% dialyzed FBS	RPMI 5 mM glucose + 10% FBS	RPMI 5 mM glucose + 10% dialyzed FBS
[1]	445	452	419
[2]	453	429	429

O=C(NCc1ccncc1)C12C[C@H]3C[C@@H](C1)CC(c1ccc(Cl)cc1)(C3)C2
AUC of viability dose-response curve
Details	[1]	[2]	[3]
HPLM + 10% dialyzed FBS	419	415	414
RPMI 5 mM glucose + 10% FBS	453	439	389
RPMI 5 mM glucose + 10% dialyzed FBS	451	438	420

CCN1CCCC1CNC(=O)c1cc(S(=O)(=O)CC)c(N)cc1OC (centres undefined)
AUC of viability dose-response curve
Details	[1]	[2]	[3]
HPLM + 10% dialyzed FBS	458	463	474
RPMI 5 mM glucose + 10% FBS	459	461	474
RPMI 5 mM glucose + 10% dialyzed FBS	469	469	453

CN(C)CCN(C)CCc1ccc(Cl)c(Cl)c1
AUC of viability dose-response curve
Details	[1]	[2]	[3]
HPLM + 10% dialyzed FBS	473	467	466
RPMI 5 mM glucose + 10% FBS	473	465	458
RPMI 5 mM glucose + 10% dialyzed FBS	473	466	451

cell viability [%], [4]
Details	HPLM + 10% dialyzed FBS	RPMI 5 mM glucose + 10% FBS
0.000781 µM	118	123
0.00234 µM	114	101
0.00702 µM	132	121
0.0211 µM	131	125
0.0632 µM	128	124
0.19 µM	131	133
0.569 µM	127	145
1.71 µM	119	132
5.12 µM	122	127
15.4 µM	114	131
46.1 µM	114	126

CC[C@]1(O)C[C@H]2CN(CCC3=C([NH]C4=C3C=CC=C4)[C@@](C2)(C(=O)OC)C5=CC6=C(C=C5OC)N(C=O)[C@H]7[C@](O)([C@H](OC(C)=O)[C@]8(CC)\C=C/C[N@@]9CC[C@]67[C@H]89)C(=O)OC)C1
AUC of viability dose-response curve
Details	HPLM + 10% dialyzed FBS	RPMI 5 mM glucose + 10% FBS	RPMI 5 mM glucose + 10% dialyzed FBS
[1]	272	239	264
[2]	185	180	224

cell viability [%]
Details	[4]	[5]	[6]
HPLM + 10% dialyzed FBS, 0.000781 µM	114	119	118
HPLM + 10% dialyzed FBS, 0.00234 µM	104	117	117
HPLM + 10% dialyzed FBS, 0.00702 µM	95.2	127	119
HPLM + 10% dialyzed FBS, 0.0211 µM	84	110	82.3
HPLM + 10% dialyzed FBS, 0.0632 µM	36.5	35.3	21.6
HPLM + 10% dialyzed FBS, 0.19 µM	24.7	34.7	17.7
HPLM + 10% dialyzed FBS, 0.569 µM	20.7	43.2	11
HPLM + 10% dialyzed FBS, 1.71 µM	23.2	47	10.2
HPLM + 10% dialyzed FBS, 5.12 µM	16.4	47.1	11.3
HPLM + 10% dialyzed FBS, 15.4 µM	10.7	50.9	9.28
HPLM + 10% dialyzed FBS, 46.1 µM	7.67	41.6	8.54
RPMI 5 mM glucose + 10% FBS, 0.000781 µM	70.8	120	115
RPMI 5 mM glucose + 10% FBS, 0.00234 µM	70.8	118	109
RPMI 5 mM glucose + 10% FBS, 0.00702 µM	67	127	112
RPMI 5 mM glucose + 10% FBS, 0.0211 µM	39.6	116	75.1
RPMI 5 mM glucose + 10% FBS, 0.0632 µM	13.4	38.9	19.5
RPMI 5 mM glucose + 10% FBS, 0.19 µM	11	24.4	15.9
RPMI 5 mM glucose + 10% FBS, 0.569 µM	12	23	9.98
RPMI 5 mM glucose + 10% FBS, 1.71 µM	8.09	30.7	8.03
RPMI 5 mM glucose + 10% FBS, 5.12 µM	4.93	28.6	8.69
RPMI 5 mM glucose + 10% FBS, 15.4 µM	3.51	30.4	8.09
RPMI 5 mM glucose + 10% FBS, 46.1 µM	2.93	25.8	6.94
RPMI 5 mM glucose + 10% dialyzed FBS, 0.000781 µM	99.8	–	105
RPMI 5 mM glucose + 10% dialyzed FBS, 0.00234 µM	108	–	108
RPMI 5 mM glucose + 10% dialyzed FBS, 0.00702 µM	106	–	110
RPMI 5 mM glucose + 10% dialyzed FBS, 0.0211 µM	90.3	–	106
RPMI 5 mM glucose + 10% dialyzed FBS, 0.0632 µM	46.3	–	35.6
RPMI 5 mM glucose + 10% dialyzed FBS, 0.19 µM	18	–	34.6
RPMI 5 mM glucose + 10% dialyzed FBS, 0.569 µM	16.2	–	20.5
RPMI 5 mM glucose + 10% dialyzed FBS, 1.71 µM	18.1	–	12
RPMI 5 mM glucose + 10% dialyzed FBS, 5.12 µM	11.5	–	12.1
RPMI 5 mM glucose + 10% dialyzed FBS, 15.4 µM	6.29	–	12.8
RPMI 5 mM glucose + 10% dialyzed FBS, 46.1 µM	5.26	–	12.6
